In brackets after ≈: the same amount, converted by molar mass.
Experiments:
[1] = test system: Daphnia magna; test: whole plant or invertebrate; format: in vivo; details: for EC50: Daphnia magna, read-out: Mean EC50
Procedure: Determination of the EC50 Value in Test Tubes
Using Daphnia magna as a test species a series of test concentrations of the standard reference toxicant CuSO4 was established in triplicate. Each replicate consisted of 10 ml of test media in a 15 ml glass test tube. Five organisms were placed in each tube. The tubes were then maintained for a period of one hour at ambient room environmental conditions. At the end of one hour 0.4 mg of the substrate 4-Methylumbelliferyl b-D-galactoside (MUF) was added. Fifteen minutes after the addition of the MUF the test tubes were taken into a dark room. […] A record was made of the number of strongly fluorescing Daphnia magna bodies. […] These organisms were then compared to each of the other triplicate concentrations.
The data was then analyzed statistically by conventional methods (Methods for Measuring the Acute Toxicity of Effluents to Freshwater and Marine Organisms (Third Edition) EPA/600/4-85/013).
11 standard reference toxicants were then analyzed by the above method. […]

[2] = test system: Daphnia magna; test: Daphnia magna fluorescence bioassay in a multiwell plate (Example 1); format: in vivo; parameters: key to fluorescence of Daphnia magna: fluorescing; nonfluorescing; details: for fluorescence of Daphnia magna / survival (all alive): replicates #1, #2, #3
Source text: Determination of an EC50 Value in a Multiwell Plate
The objective of this example was to determine the EC50 value and its confidence limits for the test substance copper sulfate ([…]) to the common water flea, Daphnia magna.
Using the invertebrate Daphnia magna as a test species a series of test concentratins are established with the standard reference toxicant copper sulfate, CuSo4, in triplicate at the following concentrations:
One ml of each of the above CuSO4 solutions was pippetted into a mutiwell plate (3 replications per concentration, 1 ml per replicate). To each of 18 wells in the plate 5 Daphnia magna were added and exposed to the test concentrations for a period of five minutes. Then to each of the 18 wells, with the exception of 0-B 1, 2 and 3, 1.0 mg of 4-Methylumbelliferyl b-D-Galactoside (MUF) was dropped onto the surface of each well. The powder settled to the bottom of each well. After 1 minute of exposure, each sample was read. An ultra-violet light (black light) was held over the multiwell in a dark room. The fluorescent intensity of Controls 0-A ppm (maximum intensity) and Controls 0-B ppm (minimum intensity) were utilized as baselines to compare the effects of test concentrations 0.01 through 10.0 ppm CuSO4.

[3] = Table 2, three tests at different times per toxicant, 1 hour exposure, 15 minutes after MUF

c1ccccc1 [Benzene]
EC50 ([1]; 1 h): 6.5 µg/mL (≈ 83.2 µM)

[Cd] [Cd, cadmium]
Mean EC50 [1, 3]: 0.41 ppm

[Cr] [Cr, chromium]
Mean EC50 [1, 3]: 3.7 ppm

[Cu] [Cu, copper]
EC50 for Cu with Daphnia magna ([1]; test tubes, 1 hour exposure, 15 minutes after MUF): 0.23 ppm

C=O [Formaldehyde]
EC50 ([1]; 1 h): 39.2 µg/mL (≈ 1310 µM)

CCCCCCCCCCCCOS(=O)(=O)O [NaLS]
EC50 [1, 3]: 74.1 µg/mL (≈ 278 µM)

Oc1c(Cl)c(Cl)c(Cl)c(Cl)c1Cl [NaPCP]
EC50 [1, 3]: 1 µg/mL (≈ 3.75 µM)

Oc1ccccc1 [Phenol]
EC50 ([1]; 1 h): 37.1 µg/mL (≈ 394 µM)

Cc1ccccc1 [Toluene]
EC50 ([1]; 1 h): 6.3 µg/mL (≈ 68.4 µM)

[Zn] [Zn, zinc]
Mean EC50 [1, 3]: 4.3 ppm

copper sulfate [CuSO4]
fluorescence of Daphnia magna ([2]; 0.01 ppm): f
survival (all alive) ([2]; 0.01 ppm): all alive
fluorescence of Daphnia magna ([2]; 0.1 ppm): f
survival (all alive) ([2]; 0.1 ppm): all alive
fluorescence of Daphnia magna ([2]; 1.0 ppm): f
survival (all alive) ([2]; 1.0 ppm): all alive
sublethal adverse affect detected ([2]; 10.0 ppm, in less than 10 minutes): sublethal adverse affect
fluorescence of Daphnia magna ([2]; 10.0 ppm): nf
survival (all alive) ([2]; 10.0 ppm): all alive
EC50 ([2]; multiwell plate, 5 minutes exposure, MUF substrate, read after 1 minute): 3.2 ppm

mercury [Hg]
Mean EC50 [1, 3]: 0.02 ppm
